According to PubChem BioAssay AID1919000 (Molecular Pharmacology Branch, DTP, NCI, 2023):
One block for each compound: values may come before it.

Test system: 653999-131-R-J2-PDC complex spheroids, growth % test/control
Assay: Anticancer human tumor 653999-131-R-J2-PDC patient-derived lung adenocarcinoma cell line growth inhibition [AhR]
Settings: for IC50: curve of first compound; for viability, T/C: stronger effect = lower value
Method in brief: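 Agents were dosed in half-log steps down from roughly clinical Cmax, or from 10 microM where Cmax was unknown, alone and with AhR antagonists. Read-out: percent test/control growth of tumor spheroids containing HUVEC and MSC stromal cells.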

[1] = second compound 0.1 µM, first compound 0.0316 µM
[2] = second compound 0.1 µM, first compound 0.1 µM
[3] = second compound 0.1 µM, first compound 0.316 µM
[4] = second compound 0.1 µM, first compound 1 µM
[5] = second compound 0.1 µM, first compound 3.16 µM
[6] = second compound 0.1 µM, first compound 10 µM
[7] = second compound 0.316 µM, first compound 0.0316 µM
[8] = second compound 0.316 µM, first compound 0.1 µM
[9] = second compound 0.316 µM, first compound 0.316 µM
[10] = second compound 0.316 µM, first compound 1 µM
[11] = second compound 0.316 µM, first compound 3.16 µM
[12] = second compound 0.316 µM, first compound 10 µM
[13] = second compound 1 µM, first compound 0.0316 µM
[14] = second compound 1 µM, first compound 0.1 µM
[15] = second compound 1 µM, first compound 0.316 µM
[16] = second compound 1 µM, first compound 1 µM
[17] = second compound 1 µM, first compound 3.16 µM
[18] = second compound 1 µM, first compound 10 µM
[19] = second compound 3.16 µM, first compound 0.0316 µM
[20] = second compound 3.16 µM, first compound 0.1 µM
[21] = second compound 3.16 µM, first compound 0.316 µM
[22] = second compound 3.16 µM, first compound 1 µM
[23] = second compound 3.16 µM, first compound 3.16 µM
[24] = second compound 3.16 µM, first compound 10 µM
[25] = second compound 10 µM, first compound 0.0316 µM
[26] = second compound 10 µM, first compound 0.1 µM
[27] = second compound 10 µM, first compound 0.316 µM
[28] = second compound 10 µM, first compound 1 µM
[29] = second compound 10 µM, first compound 3.16 µM
[30] = second compound 10 µM, first compound 10 µM
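Further: spheroids exposed to agents for seven days.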
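Wherever viability, T/C is given: 100% = DMSO vehicle control viability.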

IC50 (second compound 0.1 µM): > 10000 nM
IC50 (second compound 0.316 µM): > 10000 nM
IC50 (second compound 1 µM): > 10000 nM
IC50 (second compound 3.16 µM): > 10000 nM
IC50 (second compound 10 µM): > 10000 nM
Structure (SMILES): NS(=O)(=O)OCC1CC(n2ccc3c(NC4CCc5ccccc54)ncnc32)CC1O (stereo not given) + CC(CO)NC(=O)c1cc(-c2ccc(Cl)cc2)nn(-c2cnn(C)c2)c1=O
viability, T/C [1]: 108%
viability, T/C [2]: 99.8%
viability, T/C [3]: 109%
viability, T/C [4]: 98.9%
viability, T/C [5]: 63.4%
viability, T/C [6]: 51%
viability, T/C [7]: 108%
viability, T/C [8]: 98.7%
viability, T/C [9]: 101%
viability, T/C [10]: 80.4%
viability, T/C [11]: 53.1%
viability, T/C [12]: 54.5%
viability, T/C [13]: 101%
viability, T/C [14]: 111%
viability, T/C [15]: 114%
viability, T/C [16]: 53.8%
viability, T/C [17]: 53.4%
viability, T/C [18]: 52.3%
viability, T/C [19]: 101%
viability, T/C [20]: 102%
viability, T/C [21]: 99.9%
viability, T/C [22]: 54.5%
viability, T/C [23]: 52%
viability, T/C [24]: 58.4%
viability, T/C [25]: 97.9%
viability, T/C [26]: 96.9%
viability, T/C [27]: 93.5%
viability, T/C [28]: 54.1%
viability, T/C [29]: 51%
viability, T/C [30]: 56.9%

IC50 (second compound 0.1 µM): 2930 nM
IC50 (second compound 0.316 µM): 2890 nM
IC50 (second compound 1 µM): 3060 nM
IC50 (second compound 3.16 µM): 2710 nM
IC50 (second compound 10 µM): 388 nM
Structure (SMILES): Nc1ccccc1NC(=O)c1ccc(CNC(=O)OCc2cccnc2)cc1 + Cc1cncc(-c2nc(NCCc3c[nH]c4ccccc34)c3ncn(C(C)C)c3n2)c1
viability, T/C [1]: 85.2%
viability, T/C [2]: 86.2%
viability, T/C [3]: 88.8%
viability, T/C [4]: 61.4%
viability, T/C [5]: 52%
viability, T/C [6]: 15.9%
viability, T/C [7]: 91.1%
viability, T/C [8]: 85.9%
viability, T/C [9]: 84.3%
viability, T/C [10]: 57.2%
viability, T/C [11]: 56.6%
viability, T/C [12]: 13.2%
viability, T/C [13]: 88.3%
viability, T/C [14]: 86.7%
viability, T/C [15]: 69.3%
viability, T/C [16]: 65.7%
viability, T/C [17]: 55.6%
viability, T/C [18]: 13.3%
viability, T/C [19]: 93%
viability, T/C [20]: 113%
viability, T/C [21]: 88.4%
viability, T/C [22]: 57.7%
viability, T/C [23]: 55.4%
viability, T/C [24]: 8.91%
viability, T/C [25]: 66.7%
viability, T/C [26]: 46.9%
viability, T/C [27]: 45.3%
viability, T/C [28]: 44.3%
viability, T/C [29]: 36.6%
viability, T/C [30]: 4.53%

More lines, now with the values behind:

Structure (SMILES): COc1cccc2c1C(=O)c1c(O)c3c(c(O)c1C2=O)CC(O)(C(=O)CO)CC3OC1CC(N)C(O)C(C)O1 (stereo not given) + Cc1cncc(-c2nc(NCCc3c[nH]c4ccccc34)c3ncn(C(C)C)c3n2)c1
IC50 (second compound 0.1 µM): < 31.6 nM
IC50 (second compound 0.316 µM): < 31.6 nM
IC50 (second compound 1 µM): < 31.6 nM
IC50 (second compound 3.16 µM): 112 nM
IC50 (second compound 10 µM): < 31.6 nM
viability, T/C [1]: 50.2%
viability, T/C [2]: 38.3%
viability, T/C [3]: 26.9%
viability, T/C [4]: 7.22%
viability, T/C [5]: 3.85%
viability, T/C [6]: 14%
viability, T/C [7]: 50.4%
viability, T/C [8]: 37.9%
viability, T/C [9]: 27.2%
viability, T/C [10]: 6.87%
viability, T/C [11]: 3.35%
viability, T/C [12]: 12.9%
viability, T/C [13]: 51.4%
viability, T/C [14]: 44.9%
viability, T/C [15]: 27.6%
viability, T/C [16]: 6.09%
viability, T/C [17]: 3.45%
viability, T/C [18]: 15.4%
viability, T/C [19]: 56.1%
viability, T/C [20]: 50%
viability, T/C [21]: 28.9%
viability, T/C [22]: 4.87%
viability, T/C [23]: 4.59%
viability, T/C [24]: 12.2%
viability, T/C [25]: 40%
viability, T/C [26]: 35.5%
viability, T/C [27]: 21.5%
viability, T/C [28]: 2.46%
viability, T/C [29]: 5.69%
viability, T/C [30]: 7.61%

Structure (SMILES): COc1ccc([C@@H](O)c2cc(-c3ncnc4cc(N5CCOCC5)ccc34)c(F)cc2Cl)nn1 + Cc1ccccc1N=Nc1ccc(NC(=O)c2ccnn2C)c(C)c1
IC50 (second compound 0.1 µM): 9880 nM
IC50 (second compound 0.316 µM): > 10000 nM
IC50 (second compound 1 µM): > 10000 nM
IC50 (second compound 3.16 µM): > 10000 nM
IC50 (second compound 10 µM): 7770 nM
viability, T/C [1]: 101%
viability, T/C [2]: 105%
viability, T/C [3]: 88.7%
viability, T/C [4]: 74.2%
viability, T/C [5]: 66%
viability, T/C [6]: 48.6%
viability, T/C [7]: 114%
viability, T/C [8]: 114%
viability, T/C [9]: 88.7%
viability, T/C [10]: 83.6%
viability, T/C [11]: 65%
viability, T/C [12]: 51.8%
viability, T/C [13]: 96%
viability, T/C [14]: 94.5%
viability, T/C [15]: 109%
viability, T/C [16]: 87.6%
viability, T/C [17]: 62.8%
viability, T/C [18]: 54.9%
viability, T/C [19]: 96%
viability, T/C [20]: 107%
viability, T/C [21]: 98.7%
viability, T/C [22]: 88.1%
viability, T/C [23]: 67.9%
viability, T/C [24]: 54.5%
viability, T/C [25]: 89.5%
viability, T/C [26]: 101%
viability, T/C [27]: 95.1%
viability, T/C [28]: 83.6%
viability, T/C [29]: 70.9%
viability, T/C [30]: 44.2%

Structure (SMILES): COc1ccc([C@@H](O)c2cc(-c3ncnc4cc(N5CCOCC5)ccc34)c(F)cc2Cl)nn1 + CC(CO)NC(=O)c1cc(-c2ccc(Cl)cc2)nn(-c2cnn(C)c2)c1=O
IC50 (second compound 0.1 µM): 8450 nM
IC50 (second compound 0.316 µM): 7790 nM
IC50 (second compound 1 µM): 8130 nM
IC50 (second compound 3.16 µM): 7000 nM
IC50 (second compound 10 µM): 6940 nM
viability, T/C [1]: 91.5%
viability, T/C [2]: 86.9%
viability, T/C [3]: 85.4%
viability, T/C [4]: 73.6%
viability, T/C [5]: 63.9%
viability, T/C [6]: 47.6%
viability, T/C [7]: 89.9%
viability, T/C [8]: 90.2%
viability, T/C [9]: 87.8%
viability, T/C [10]: 80%
viability, T/C [11]: 66.8%
viability, T/C [12]: 45.2%
viability, T/C [13]: 90.4%
viability, T/C [14]: 95.4%
viability, T/C [15]: 95.2%
viability, T/C [16]: 84.5%
viability, T/C [17]: 65.4%
viability, T/C [18]: 46.6%
viability, T/C [19]: 96%
viability, T/C [20]: 96.8%
viability, T/C [21]: 100%
viability, T/C [22]: 77.4%
viability, T/C [23]: 60.3%
viability, T/C [24]: 45.4%
viability, T/C [25]: 90%
viability, T/C [26]: 95.3%
viability, T/C [27]: 90.8%
viability, T/C [28]: 75.3%
viability, T/C [29]: 59.5%
viability, T/C [30]: 45.6%

Structure (SMILES): CC(C)CC(NC(=O)C(Cc1ccccc1)NC(=O)c1cnccn1)B(O)O (stereo not given) + Cc1ccccc1N=Nc1ccc(NC(=O)c2ccnn2C)c(C)c1
IC50 (second compound 0.1 µM): 20.4 nM
IC50 (second compound 0.316 µM): 20.2 nM
IC50 (second compound 1 µM): 19.6 nM
IC50 (second compound 3.16 µM): 20.7 nM
IC50 (second compound 10 µM): 22.1 nM
viability, T/C (second compound 0.1 µM, first compound 0.000949 µM): 103%
viability, T/C (second compound 0.1 µM, first compound 0.003 µM): 117%
viability, T/C (second compound 0.1 µM, first compound 0.00949 µM): 82.6%
viability, T/C (second compound 0.1 µM, first compound 0.03 µM): 33.1%
viability, T/C (second compound 0.1 µM, first compound 0.0949 µM): 12.7%
viability, T/C (second compound 0.1 µM, first compound 0.3 µM): 4.4%
viability, T/C (second compound 0.316 µM, first compound 0.000949 µM): 89.7%
viability, T/C (second compound 0.316 µM, first compound 0.003 µM): 116%
viability, T/C (second compound 0.316 µM, first compound 0.00949 µM): 91%
viability, T/C (second compound 0.316 µM, first compound 0.03 µM): 28.3%
viability, T/C (second compound 0.316 µM, first compound 0.0949 µM): 10.5%
viability, T/C (second compound 0.316 µM, first compound 0.3 µM): 6.14%
viability, T/C (second compound 1 µM, first compound 0.000949 µM): 100%
viability, T/C (second compound 1 µM, first compound 0.003 µM): 108%
viability, T/C (second compound 1 µM, first compound 0.00949 µM): 87.6%
viability, T/C (second compound 1 µM, first compound 0.03 µM): 27.4%
viability, T/C (second compound 1 µM, first compound 0.0949 µM): 14.9%
viability, T/C (second compound 1 µM, first compound 0.3 µM): 6.46%
viability, T/C (second compound 3.16 µM, first compound 0.000949 µM): 97.6%
viability, T/C (second compound 3.16 µM, first compound 0.003 µM): 96.8%
viability, T/C (second compound 3.16 µM, first compound 0.00949 µM): 86.7%
viability, T/C (second compound 3.16 µM, first compound 0.03 µM): 31.8%
viability, T/C (second compound 3.16 µM, first compound 0.0949 µM): 20.8%
viability, T/C (second compound 3.16 µM, first compound 0.3 µM): 7.43%
viability, T/C (second compound 10 µM, first compound 0.000949 µM): 89.1%
viability, T/C (second compound 10 µM, first compound 0.003 µM): 98.1%
viability, T/C (second compound 10 µM, first compound 0.00949 µM): 80%
viability, T/C (second compound 10 µM, first compound 0.03 µM): 37.8%
viability, T/C (second compound 10 µM, first compound 0.0949 µM): 25.2%
viability, T/C (second compound 10 µM, first compound 0.3 µM): 11.4%
